Source: PubChem BioAssay (NCI)
“And” between values parts separate entries of the source, which are not always exact repeats. Equal entries are not always repeated.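 Tested at 5 concentrations; 48 h exposure; 96-well plates; endpoints linearly interpolated, else capped at highest concentration. Abbreviation: GI50, concentration required for 50% inhibition of growth. Definition used: TGI = concentration required for complete inhibition of growth.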

Columns and labels:
Assay in all cases: DTP human tumour cell line panel, 48 h
EKVX NSCLC = tested on: EKVX NSCLC
HL-60(TB) leukemia = tested on: HL-60(TB) leukemia
KM12 colon = tested on: KM12 colon
M14 melanoma = tested on: M14 melanoma
MALME-3M melanoma = tested on: MALME-3M melanoma
NCI-H23 lung = tested on: NCI-H23 lung
RPMI-8226 leukemia = tested on: RPMI-8226 leukemia
SF-539 CNS = tested on: SF-539 CNS
LOX IMVI melanoma = tested on: LOX IMVI melanoma
SNB-75 CNS = tested on: SNB-75 CNS

Structure (SMILES)	GI50 (EKVX NSCLC)	TGI (EKVX NSCLC)	GI50 (HL-60(TB) leukemia)	TGI (HL-60(TB) leukemia)	GI50 (KM12 colon)	TGI (KM12 colon)	GI50 (M14 melanoma)	TGI (M14 melanoma)	GI50 (MALME-3M melanoma)	TGI (MALME-3M melanoma)	GI50 (NCI-H23 lung)	TGI (NCI-H23 lung)	GI50 (RPMI-8226 leukemia)	TGI (RPMI-8226 leukemia)	GI50 (SF-539 CNS)	TGI (SF-539 CNS)	TGI (LOX IMVI melanoma)	TGI (SNB-75 CNS)	GI50 (LOX IMVI melanoma)	GI50 (SNB-75 CNS)
O=C1/C(=C/c2ccccc2)SC(=Nc2ccccc2)N1Nc1ccccc1	7.28 µM	> 100 µM	10.4 µM	68.9 µM	19 µM	> 100 µM	12.3 µM	42.8 µM	19.8 µM	66.8 µM	22.6 µM	> 100 µM	3.94 µM	27.4 µM	27.2 µM	99.5 µM				
CCOc1ccccc1NC(=O)CCc1nnc2s/c(=C\CCc3ccccc3)c(=O)n12				> 100 µM		> 100 µM		> 100 µM		> 100 µM		> 100 µM		> 100 µM		> 100 µM	> 100 µM	> 100 µM		
Cc1ccc(NS(=O)(=O)c2cc(C(C)(C)C)ccc2OCCOCCOCCOc2ccc(C(C)(C)C)cc2S(=O)(=O)Nc2ccc(C)cc2)cc1		> 100 µM		> 100 µM		> 100 µM		> 100 µM		> 100 µM		> 100 µM				> 100 µM	> 100 µM	> 100 µM		
O=S(=O)(NC(=S)Nc1ccccc1)c1ccc(N2N=C3c4ccccc4CC3C2c2cccs2)cc1 (stereo not drawn)	19.5 µM	54.4 µM			21.5 µM	> 100 µM	22.7 µM	46.3 µM			17.6 µM	39.5 µM	30.3 µM	97.6 µM	22.7 µM	46.3 µM	70.7 µM	> 100 µM	24.4 µM	71.9 µM
C=C(CNCCc1ccc(O)cc1)[C@@H]1CC[C@]2(CO)CC[C@]3(C)[C@H](CC[C@@H]4[C@@]5(C)CCC(=O)C(C)(C)[C@@H]5CC[C@]43C)[C@@H]12	1.7 µM	3.24 µM			1.82 µM	3.61 µM	1.72 µM	3.24 µM	1.65 µM	3.25 µM	1.69 µM	3.26 µM	1.79 µM	4.45 µM	1.75 µM	3.17 µM	2.97 µM	2.74 µM	1.6 µM	1.37 µM
CN(C)c1ccc(/C=C2\CNC/C(=C\c3ccc(N(C)C)cc3)C2=O)cc1		> 100 µM						> 100 µM		> 100 µM		> 100 µM		> 100 µM		> 100 µM	37 µM	27.2 µM		
COc1c2ccccc2c(O)c2c(=O)c(C(=O)O)cn(C)c12	85.2 µM	> 100 µM			> 100 µM	> 100 µM	> 100 µM	> 100 µM			> 100 µM	> 100 µM	> 100 µM	> 100 µM	35.9 µM	> 100 µM	> 100 µM	> 100 µM	> 100 µM	> 100 µM
NC1=NC(c2ccccc2)N=C(Nc2ccccc2)N1 (stereo not drawn)	> 100 µM	> 100 µM	> 100 µM	> 100 µM	31.6 µM	> 100 µM	> 100 µM	> 100 µM			> 100 µM	> 100 µM	> 100 µM	> 100 µM	> 100 µM	> 100 µM	> 100 µM	> 100 µM	> 100 µM	34.8 µM
COc1ccc(NC(=O)C(=O)NNC(=O)c2sc(NNC(C)=O)nc2C)c([N+](=O)[O-])c1		> 100 µM		> 100 µM		> 100 µM		> 100 µM		> 100 µM		> 100 µM		> 100 µM		> 100 µM	> 100 µM			
CCC(=O)OC1CCn2c1nc1c2C(=O)C(C)=C(N2CC2)C1=O (stereo not drawn)	0.305 µM	1.04 µM and 0.504 µM	0.169 µM	0.432 µM and 2.63 µM	0.0242 µM	0.159 µM and 0.363 µM	0.0185 µM	0.0436 µM and 0.141 µM	0.0307 µM	0.0961 µM and 0.114 µM	0.0235 µM	0.0821 µM and 0.0948 µM			0.0138 µM		0.0886 µM and 0.243 µM	0.0957 µM and 0.0544 µM	0.0311 µM	0.0223 µM
NC(=O)c1csc(C2C=CC(CO)O2)n1 (stereo not drawn)		> 100 µM		> 100 µM		> 10 µM		> 100 µM		> 100 µM		> 100 µM		> 100 µM		> 100 µM	> 100 µM			
COc1cccc(/C=C/C(=O)c2ccc(Cl)cc2Cl)c1OC	13.6 µM	31.8 µM	2.4 µM	5.85 µM	2.74 µM	13.1 µM	13.7 µM	26.7 µM	13.8 µM	28.2 µM	13.7 µM	26.6 µM			14.1 µM	29 µM	6.88 µM	33.8 µM	2.64 µM	18 µM
C=C(CN1CCN(c2cccc(C(F)(F)F)c2)CC1)c1ccc(C(=O)Nc2ccccc2N)cc1	2.92 µM	19.4 µM	0.118 µM	0.856 µM	0.486 µM	5.15 µM	1.05 µM	9.89 µM			3.72 µM	> 32.9 µM	0.322 µM	2.49 µM	0.543 µM	2.82 µM	6.25 µM		0.56 µM	
Cc1c(O)c(=O)ccn1C1OC(CO)C(O)C1O (stereo not drawn)		> 100 µM		56.3 µM		> 100 µM		> 100 µM		> 100 µM				> 100 µM			> 100 µM	> 100 µM		
N#C/C(=C/C=C(\Cl)c1ccc(Cl)cc1)C(N)=O	7.74 µM	17.4 µM			2.1 µM	4.69 µM	1.94 µM	9.84 µM	1.48 µM	3.55 µM	2.4 µM	8.83 µM	2.14 µM	> 100 µM	3.19 µM	9.27 µM	6.91 µM		0.976 µM	
Cc1ccc(-c2ccc(Nc3c4ccccc4nc4ccccc34)cc2)cn1		> 100 µM				19.1 µM		11.2 µM				88.7 µM		4.54 µM		21.1 µM	6.54 µM			
COc1cc2c3c(n(CCCN4CCN(C)CC4)c(=O)c2cc1OC)-c1cc2c(cc1C3=O)OCO2	17.7 µM	41.1 µM	19.5 µM	57.6 µM	12.8 µM	29 µM			24.8 µM	42.3 µM	11.9 µM	24.1 µM	2.39 µM	14.1 µM	17.7 µM	38.2 µM	20.4 µM	36 µM	3.81 µM	16 µM
COc1ccc(C2NCCc3c2[nH]c2ccccc32)cc1CN1CCN(c2ccc(F)cc2)CC1 (stereo not drawn)			2.14 µM	4.77 µM	1.86 µM	3.33 µM			1.88 µM	3.49 µM	4.77 µM	17 µM	2.47 µM	5.65 µM	1.88 µM	3.42 µM	3.09 µM	2.52 µM	1.64 µM	1.25 µM
COc1ccc(/C=C(/C(=O)N2CCCC2)c2cc(OC)c(OC)c(OC)c2)cc1N	4.63 µM	> 100 µM	2.07 µM	7.65 µM	1.55 µM	> 100 µM			4.25 µM	> 100 µM	4.61 µM	> 100 µM	4.05 µM	> 100 µM	1.9 µM	6.75 µM	> 100 µM	> 100 µM	3.77 µM	2.18 µM
C/C=C(\C)C(=O)O[C@@H]1C(O)[C@H]2OC(COC(=O)CCC(=O)CCCCCC[C@H](CCCCC)O[C@@H]3OC(C)[C@H](OC(C)=O)C(O)[C@H]3O2)[C@H]1OC(=O)/C=C/c1ccccc1 (stereo partly drawn)	< 0.0267 µM	> 87.9 µM	0.127 µM	18.9 µM	< 0.0138 µM	> 100 µM	< 0.01 µM	0.123 µM	0.0558 µM	6.48 µM	0.293 µM	62.3 µM	< 0.01 µM	9.35 µM	< 0.01 µM	1.96 µM		0.747 µM		< 0.01 µM
O=C(O)c1cc2ccccc2c(N=Nc2c([N+](=O)[O-])cc([N+](=O)[O-])cc2S(=O)(=O)O)c1O		> 100 µM				> 100 µM		> 100 µM		> 100 µM		> 100 µM		> 100 µM			> 100 µM	> 100 µM		
N#C/C(=C\c1ccc(Br)cc1)n1nnc2cccc(F)c21	1.62 µM	3.02 µM			1.51 µM	3.31 µM					1.43 µM	3.07 µM	0.416 µM	4.25 µM	1.86 µM	3.45 µM	1.92 µM	2.87 µM	0.614 µM	1.41 µM
O=C1c2ccccc2S(=O)(=O)N1CSC(=S)N1CCCC1	> 100 µM	> 100 µM			> 100 µM	> 100 µM	> 100 µM	> 100 µM	> 100 µM	> 100 µM	> 78.6 µM	> 100 µM		> 36 µM	> 100 µM	> 100 µM	> 100 µM	> 100 µM	> 100 µM	> 48 µM
COc1cc(-c2oc3c(OC)c(OC)cc(O)c3c(=O)c2OC)ccc1O		> 50 µM		7.58 µM	> 100 µM and 19 µM	> 100 µM	3 µM and 6.26 µM	> 100 µM		> 100 µM	7.38 µM and 35.1 µM	> 100 µM				> 100 µM and 49.2 µM	> 100 µM and 36.3 µM	8.54 µM and > 5 µM	1.88 µM and 7.95 µM	1.7 µM and > 5 µM
